Data published in patent US12582116B2, “Agricultural formulations” (Dow Global Technologies LLC, priority 2020, dated 2026).

What was measured:
[1] = Mutual solubility of Formula 1 solvent and water (Example 1); format: physicochemical; conditions: for solubility in water: solvent dissolved in water
Description: The solubility of Formula 1 Solvent A in water is measured to be 0.67 weight percent. The solubility of water in Formula 1 Solvent A is measured to be 1.44 weight percent.

[2] = Solubility of agricultural active ingredients in solvent by visual observation, Formula 1 Solvent A vs aromatic hydrocarbon (Example 2)
Description: The aromatic hydrocarbon solvent used is Aromatic 150 from Exxon Mobil Corporation (“Aromatic Hydrocarbon”). The agricultural active ingredients used are bifenthrin, tebuconazole, nitrapyrin, and dicamba acid.
(§1) The solubilities are determined by visual observation using the following method. Four milliliter vials are charged with agricultural active ingredient (10 to 50 wt %) and the specified solvent (90 to 50 wt %). The vials are capped and taped to seal with electric tape. The vials are secured in a plastic container and shaken on a laboratory shaker for 12 hours at ambient laboratory temperature and humidity. After 12 hours, each sample set is evaluated for solubility of the agricultural active ingredient solid. Complete solubilization of the agricultural active ingredient is determined to be achieved if a homogeneous clear solution is observed. The formulations made with Formula 1 Solvent A represent some embodiments of agricultural formulations of the present invention.

[3] = Solubility of agricultural active ingredients in solvent by visual observation, Formula 1 Solvent A vs N,N-dialkyl fatty amide (Example 3)
Description: The N,N-dialkyl fatty amide solvent used is HALLCOMID™ M-10’, which is a N,N-dimethyldecanamide from Stepan Company (“N,N-dialkyl Fatty Amide”). The agricultural active ingredients used are bifenthrin, tebuconazole, nitrapyrin, and dicamba acid.
as §1

[4] = in Aromatic Hydrocarbon (Aromatic 150, Exxon Mobil), shaken 12 hours at ambient laboratory temperature, visual observation, Table 2
[5] = in Formula 1 Solvent A (ethyl 2-furoate, Ethyl 408), shaken 12 hours at ambient laboratory temperature, visual observation, Table 2
[6] = in Formula 1 Solvent A (ethyl 2-furoate, Ethyl 408), shaken 12 hours at ambient laboratory temperature, visual observation, Table 3
[7] = in N,N-dialkyl Fatty Amide (HALLCOMID M-10, N,N-dimethyldecanamide), shaken 12 hours at ambient laboratory temperature, visual observation, Table 3

Row | solubility of water in Formula 1 Solvent A ([1]; water dissolved in the solvent) [weight percent] | Agricultural Active Ingredient Solubility [3] [wt %] | Compound | solubility in water [1] [weight percent] | Agricultural Active Ingredient Solubility [2, 4] [wt %] | Agricultural Active Ingredient Solubility [2, 5] [wt %] | Agricultural Active Ingredient Solubility [3, 6] [wt %] | Agricultural Active Ingredient Solubility [3, 7] [wt %] | Agricultural Active Ingredient Solubility [2] [wt %]
1 |  |  | 5-methyl-2-furoate | 0.67 |  |  |  |  | 
2 |  |  | Cc1c(COC(=O)[C@@H]2[C@H](/C=C(\Cl)C(F)(F)F)C2(C)C)cccc1-c1ccccc1 (racemic) [Bifenthrin, bifenthrin] |  | 40 | 30 | 30 | 30 | 
3 |  |  | COc1c(Cl)ccc(Cl)c1C(=O)O [Dicamba Acid, dicamba acid] |  | <10 | 40 | 40 | <10 | 
4 | 1.44 |  | CCOC(=O)c1ccco1 [Formula 1 Solvent A, ethyl 2-furoate] | 0.67 |  |  |  |  | 
5 |  | >50 | Clc1cccc(C(Cl)(Cl)Cl)n1 [Nitrapyrin, nitrapyrin] |  |  |  |  |  | >50
6 |  |  | CC(C)(C)C(O)(CCc1ccc(Cl)cc1)Cn1cncn1 (centres unmarked) [Tebuconazole, tebuconazole] |  | <10 |  | 20 | 30 | 20
